Patent US20120328628A1, “ANTIBODIES TO CONFORMATIONALLY TRAPPED PROTEINS” (The Regents of the University of California, priority 2006, published 2012)

Target: T1, wild-type caspase-1 (Homo sapiens, UniProt P29466)
T1 construct: single site alanine mutants for each of these residues in either the p10 or p20 subunit; made in house; E. coli is printed only for caspase-4/-5 made by the caspase-1 procedure
T1 sequence (P29466 120-297 limits assumed): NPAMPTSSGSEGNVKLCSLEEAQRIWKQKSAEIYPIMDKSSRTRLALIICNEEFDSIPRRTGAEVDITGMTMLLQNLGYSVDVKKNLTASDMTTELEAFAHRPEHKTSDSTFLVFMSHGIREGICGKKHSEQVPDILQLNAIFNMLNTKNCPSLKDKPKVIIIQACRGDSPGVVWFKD
T1 sequence (P29466 317-404 limits assumed): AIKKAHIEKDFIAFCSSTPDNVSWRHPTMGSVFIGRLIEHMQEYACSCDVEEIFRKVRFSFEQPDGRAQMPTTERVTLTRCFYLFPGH
Experiment: Titration of wild-type caspase-1 with z-VAD-FMK
Format: biochemical
Text: To test this, wild-type caspase-1 was titrated with inhibitor and found to produce a 2-fold activation when one reaches 0.2 equivalents of z-VAD-FMK. […] If the inhibitor labeled in a non-cooperative fashion we would expect that it would reach an optimum upon addition of about 0.5 equivalents and would cause a […] activation as half of the sites are inactivated. The fact this maxima is below 0.5 equivalents and is less than […] probably reflects that labeling is cooperative too. […] Thus, we have developed a second assay for evaluating the active site coupling.

activation of wild-type caspase-1 (0.2 equivalents of inhibitor): 2 fold
inhibition of wild-type caspase-1 (approaching one equivalent of inhibitor): complete inhibition
Substance: z-VAD-FMK
